From the NIST ThermoML archive (doi:10.1021/je700026d)
Numbers after ± are expanded uncertainties.

Assays:
[1] = Liquid; for speed of sound: 100 kPa, Linear variable-path acoustic interferometer; for viscosity / mass density: 101.3 kPa; for viscosity: Capillary tube (Ostwald / Ubbelohde) method; for mass density: Pycnometric method
[2] = xn = mol fraction of the nth substance listed; details: Liquid; for speed of sound: 100 kPa, Linear variable-path acoustic interferometer; for viscosity: Capillary tube (Ostwald / Ubbelohde) method; for mass density: Pycnometric method

COCCO [2-methoxyethan-1-ol]
[1]
Details	mass density [kg/m3]	speed of sound [m/s]	viscosity [mPa·s]
298.15 K	959.7 ± 0.7	1339.4 ± 1.8	1.543 ± 0.014
308.15 K	951.5 ± 0.7	–	1.257 ± 0.012
318.15 K	945.9 ± 0.7	–	1.051 ± 0.011

C[S+](C)[O-] [dimethyl sulfoxide]
[1]
Details	mass density [kg/m3]	speed of sound [m/s]	viscosity [mPa·s]
298.15 K	1095.4 ± 2.5	1493 ± 3.4	2.042 ± 0.034
308.15 K	1085.9 ± 2.5	–	1.568 ± 0.026
318.15 K	1076.9 ± 2.5	–	1.485 ± 0.024

CC#N [acetonitrile] + NC=O
Details	speed of sound [m/s]
[2], 298.15 K, x2 = 0	1260.2 ± 5.2

[2], 101.3 kPa, x2 = 0
Details	mass density [kg/m3]	viscosity [mPa·s]
298.15 K	776 ± 0.7	0.344 ± 0.007
308.15 K	766.3 ± 0.7	0.313 ± 0.007
318.15 K	755 ± 0.7	0.289 ± 0.007

NC=O [formamide] + COCCOC
Details	speed of sound [m/s]
[2], 298.15 K, x1 = 1	1591.3 ± 3.4

[2], x1 = 1
Details	mass density, 298.15 K [kg/m3]	mass density, 308.15 K [kg/m3]	mass density, 318.15 K [kg/m3]	viscosity, 298.15 K [mPa·s]	viscosity, 308.15 K [mPa·s]	viscosity, 318.15 K [mPa·s]
101 kPa	1129.2 ± 2.7	1120.5 ± 2.7	1111.1 ± 2.7	–	–	–
101.3 kPa	–	–	–	3.302 ± 0.055	2.542 ± 0.043	2.001 ± 0.034

CC(=O)c1ccccc1 [acetophenone]
[1]
Details	mass density [kg/m3]	speed of sound [m/s]	viscosity [mPa·s]
298.15 K	1023.1 ± 0.7	1296.4 ± 1.8	1.653 ± 0.014
308.15 K	1014.8 ± 0.7	–	1.412 ± 0.013
318.15 K	1007.5 ± 0.8	–	1.117 ± 0.012

COCCOC [1,2-dimethoxyethane]
[1]
Details	mass density [kg/m3]	speed of sound [m/s]	viscosity [mPa·s]
298.15 K	861.5 ± 1	1146.2 ± 1.7	0.409 ± 0.007
308.15 K	850.7 ± 1	–	0.366 ± 0.007
318.15 K	839.6 ± 1	–	0.33 ± 0.007

COCCO [2-methoxyethan-1-ol] + NC=O
Details	speed of sound [m/s]
[2], 298.15 K, x2 = 0	1339.4 ± 1.8

[2], 101.3 kPa, x2 = 0
Details	mass density [kg/m3]	viscosity [mPa·s]
298.15 K	959.7 ± 0.7	1.543 ± 0.014
308.15 K	951.5 ± 0.7	1.257 ± 0.012
318.15 K	945.9 ± 0.7	1.051 ± 0.011

NC=O [formamide] + CC(=O)c1ccccc1
Details	speed of sound [m/s]
[2], 298.15 K, x1 = 1	1591.3 ± 3.4

[2], 101.3 kPa, x1 = 1
Details	mass density [kg/m3]	viscosity [mPa·s]
298.15 K	1129.2 ± 2.6	3.302 ± 0.055
308.15 K	1120.5 ± 2.6	2.542 ± 0.043
318.15 K	1111.1 ± 2.6	2.001 ± 0.034

CC#N [acetonitrile]
[1]
Details	mass density [kg/m3]	speed of sound [m/s]	viscosity [mPa·s]
298.15 K	776 ± 0.7	1260.2 ± 5.2	0.344 ± 0.007
308.15 K	766.3 ± 0.7	–	0.313 ± 0.007
318.15 K	755 ± 0.7	–	0.289 ± 0.007

C[S+](C)[O-] [dimethyl sulfoxide] + NC=O
Details	speed of sound [m/s]
[2], 298.15 K, x2 = 0	1493 ± 3.4

[2], 101.3 kPa, x2 = 0
Details	mass density [kg/m3]	viscosity [mPa·s]
298.15 K	1095.4 ± 2.5	2.042 ± 0.034
308.15 K	1085.9 ± 2.5	1.568 ± 0.026
318.15 K	1076.9 ± 2.5	1.485 ± 0.024

NC=O [formamide]
[1]
Details	mass density [kg/m3]	speed of sound [m/s]	viscosity [mPa·s]
298.15 K	1129.2 ± 2.6	1591.3 ± 3.4	3.302 ± 0.055
308.15 K	1120.5 ± 2.6	–	2.542 ± 0.043
318.15 K	1111.1 ± 2.6	–	2.001 ± 0.034
